Assay results as given in patent publication US20200405696A1, “INHIBITORS OF INDOLEAMINE 2,3-DIOXYGENASE AND/OR TRYPTOPHAN 2,3-DIOXYGENASE” (IDORSIA PHARMACEUTICALS LTD, priority 2018, published 2020).

Legend:
[1] = target: T1, Recombinant full-length human IDO1 (Homo sapiens, UniProt P14902); experiment: IDO1 enzymatic assay (NFK quantified by LCMS); format: biochemical; conditions: 2 nM enzyme, 5 μM L-tryptophan, pH6.5, 30 minutes pre-incubation at RT; mean values when measured multiple times; read-out: hIDO activity (IC50 in nM)
T1 construct: Recombinant full-length human IDO1 with a N-terminal hexahistidine tag; hexahistidine (His6) (N); made in house; host or cells: E. coli
T1 sequence (P14902 whole entry): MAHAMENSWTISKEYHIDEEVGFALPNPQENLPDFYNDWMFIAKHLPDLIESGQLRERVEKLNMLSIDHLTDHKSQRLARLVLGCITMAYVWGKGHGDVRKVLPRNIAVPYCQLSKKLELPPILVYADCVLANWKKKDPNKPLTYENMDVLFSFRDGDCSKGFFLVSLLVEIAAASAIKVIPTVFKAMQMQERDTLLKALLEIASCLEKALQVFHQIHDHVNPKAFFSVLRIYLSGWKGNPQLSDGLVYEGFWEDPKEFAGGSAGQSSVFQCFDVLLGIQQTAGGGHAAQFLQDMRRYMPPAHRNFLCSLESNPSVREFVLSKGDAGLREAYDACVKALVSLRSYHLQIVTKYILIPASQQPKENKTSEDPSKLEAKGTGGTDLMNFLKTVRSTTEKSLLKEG
In short: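 IC50 comes from four-parameter logistic fits of duplicate data, with NFK quantified by LCMS and normalized to L-Trp-(indole-d5). Compound (0.5 nM–10 μM) was preincubated 30 min at RT with 2 nM E. coli-expressed IDO1 before a 30 min reaction with 5 μM tryptophan in pH 6.5 buffer containing ascorbate and methylene blue.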

[2] = target: T2, Recombinant human TDO comprising amino acids 19-407 (Homo sapiens, UniProt P48775); experiment: TDO2 enzymatic assay (NFK quantified by LCMS); format: biochemical; conditions: 15 nM enzyme, 200 μM L-tryptophan, pH7, 30 minutes pre-incubation at RT; mean values when measured multiple times; read-out: hTDO activity (IC50 in nM)
T2 construct: Recombinant human TDO comprising amino acids 19-407 with a N-terminal hexahistidine tag; hexahistidine (His6) (N); made in house; host or cells: E. coli
T2 sequence (P48775 19-406 limits assumed): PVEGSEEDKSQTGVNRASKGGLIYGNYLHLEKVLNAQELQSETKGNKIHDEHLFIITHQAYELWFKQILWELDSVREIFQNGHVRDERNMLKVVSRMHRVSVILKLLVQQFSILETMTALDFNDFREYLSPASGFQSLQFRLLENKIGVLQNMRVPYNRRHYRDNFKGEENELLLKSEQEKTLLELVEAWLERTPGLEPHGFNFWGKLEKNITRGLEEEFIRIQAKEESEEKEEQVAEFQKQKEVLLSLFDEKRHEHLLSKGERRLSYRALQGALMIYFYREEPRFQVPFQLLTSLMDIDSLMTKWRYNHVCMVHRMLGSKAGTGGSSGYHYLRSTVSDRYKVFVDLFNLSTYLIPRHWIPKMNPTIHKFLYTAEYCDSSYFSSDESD
In short: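 NFK formed over 30 min at RT from 200 μM L-tryptophan was measured by LCMS, normalized to d5-tryptophan, after compound (0.5 nM–10 μM, duplicates, 0.6% DMSO) was preincubated 30 min with 15 nM recombinant His-tagged TDO 19-407 in phosphate buffer pH 7. IC50 from four-parameter logistic fit; repeats averaged.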

Row | IC50 [1] | IC50 [2] | Compound
1 | 43.7 nM | 1440 nM | Cn1ccc2cc(-n3cc(C(O)c4c(C5CC5)sc5cncn45)cn3)cnc21 (racemic) [Example 229, rac-(2-Cyclopropyl-imidazo[5,1-b]thiazol-3-yl)-[1-(1-methyl-1H-pyrrolo[2,3-b]pyridin-5-yl)-1H-pyrazol-4-yl]-methanol]
2 | 28.7 nM | 2710 nM | CCc1sc2cncn2c1C(O)c1cn(-c2ccc(NC(=O)c3ccccc3)cc2)nn1 (racemic) [Example 230, rac-N-(4-{4-[(2-Ethyl-imidazo[5,1-b]thiazol-3-yl)-hydroxy-methyl]-[1,2,3]triazol-1-yl}-phenyl)-benzamide]
3 | 22.3 nM | > 10200 nM | CCOC(=O)COc1ccc(-n2cc(C(O)c3c(C4CC4)sc4cncn34)nn2)cc1 (racemic) [Example 231, rac-(4-{4-[(2-Cyclopropyl-imidazo[5,1-b]thiazol-3-yl)-hydroxy-methyl]-[1,2,3]triazol-1-yl}-phenoxy)-acetic acid ethyl ester]
4 | 40.1 nM | > 10200 nM | CCc1cc(-n2cc(C(O)c3c(C4CC4)sc4cncn34)nn2)ccc1O (racemic) [Example 232, rac-4-{4-[(2-Cyclopropyl-imidazo[5,1-b]thiazol-3-yl)-hydroxy-methyl]-[1,2,3]triazol-1-yl}-2-ethyl-phenol]
5 | 20.3 nM | > 10200 nM | N#Cc1ccc(-n2cc(C(O)c3c(C4CC4)sc4cncn34)nn2)cc1O (racemic) [Example 233, rac-4-{4-[(2-Cyclopropyl-imidazo[5,1-b]thiazol-3-yl)-hydroxy-methyl]-[1,2,3]triazol-1-yl}-2-hydroxy-benzonitrile]
6 | 36.7 nM | 7940 nM | CCc1sc2cncn2c1C(O)c1cn(-c2ccc(NC(=O)OC(C)(C)C)cc2)nn1 (racemic) [Example 234, rac-(4-{4-[(2-Ethyl-imidazo[5,1-b]thiazol-3-yl)-hydroxy-methyl]-[1,2,3]triazol-1-yl}-phenyl)-carbamic Acid Tert-Butyl Ester]
7 | 24.3 nM | > 10200 nM | NS(=O)(=O)c1ccc(-n2cc(C(O)c3c(C4CC4)sc4cncn34)nn2)cc1 (racemic) [Example 235, rac-4-{4-[(2-Cyclopropyl-imidazo[5,1-b]thiazol-3-yl)-hydroxy-methyl]-[1,2,3]triazol-1-yl}-benzenesulfonamide]
8 | 105 nM | > 10200 nM | CN(C)S(=O)(=O)c1ccc(-n2cc(C(O)c3c(C4CC4)sc4cncn34)nn2)cc1 (racemic) [Example 236, rac-4-{4-[(2-Cyclopropyl-imidazo[5,1-b]thiazol-3-yl)-hydroxy-methyl]-[1,2,3]triazol-1-yl}-N,N-dimethyl-benzenesulfonamide]
9 | 155 nM | > 10200 nM | O=S(=O)(c1ccc(-n2cc(C(O)c3c(C4CC4)sc4cncn34)nn2)cc1)N1CCCC1 (racemic) [Example 237, rac-(2-Cyclopropyl-imidazo[5,1-b]thiazol-3-yl)-{1-[4-(pyrrolidine-1-sulfonyl)-phenyl]-1H-[1,2,3]triazol-4-yl}-methanol]
10 | 137 nM | > 10200 nM | CCN(CC)S(=O)(=O)c1ccc(-n2cc(C(O)c3c(C4CC4)sc4cncn34)nn2)cc1 (racemic) [Example 238, rac-4-{4-[(2-Cyclopropyl-imidazo[5,1-b]thiazol-3-yl)-hydroxy-methyl]-[1,2,3]triazol-1-yl}-N,N-diethyl-benzenesulfonamide]
11 | 53 nM | > 10200 nM | CCNS(=O)(=O)c1ccc(-n2cc(C(O)c3c(C4CC4)sc4cncn34)nn2)cc1 (racemic) [Example 239, rac-4-{4-[(2-Cyclopropyl-imidazo[5,1-b]thiazol-3-yl)-hydroxy-methyl]-[1,2,3]triazol-1-yl}-N-ethyl-benzenesulfonamide]
12 | 28.3 nM | 7480 nM | CCc1sc2cncn2c1C(O)c1cn(-c2ccc(S(N)(=O)=O)cc2)nn1 (racemic) [Example 240, rac-4-{4-[(2-Ethyl-imidazo[5,1-b]thiazol-3-yl)-hydroxy-methyl]-[1,2,3]triazol-1-yl}-benzenesulfonamide]
13 | 66 nM | > 10200 nM | CCc1sc2cncn2c1C(O)c1cn(-c2ccc(S(=O)(=O)N(C)C)cc2)nn1 (racemic) [Example 241, rac-4-{4-[(2-Ethyl-imidazo[5,1-b]thiazol-3-yl)-hydroxy-methyl]-[1,2,3]triazol-1-yl}-N,N-dimethyl-benzenesulfonamide]
14 | 139 nM | > 10200 nM | CCc1sc2cncn2c1C(O)c1cn(-c2ccc(S(=O)(=O)N3CCCC3)cc2)nn1 (racemic) [Example 242, rac-(2-Ethyl-imidazo[5,1-b]thiazol-3-yl)-{1-[4-(pyrrolidine-1-sulfonyl)-phenyl]-1H-[1,2,3]triazol-4-yl}-methanol]
15 | 101 nM | > 10200 nM | CCc1sc2cncn2c1C(O)c1cn(-c2ccc(S(=O)(=O)N(CC)CC)cc2)nn1 (racemic) [Example 243, rac-N,N-Diethyl-4-{4-[(2-ethyl-imidazo[5,1-b]thiazol-3-yl)-hydroxy-methyl]-[1,2,3]triazol-1-yl}-benzenesulfonamide]
16 | 47.2 nM | > 10200 nM | CCNS(=O)(=O)c1ccc(-n2cc(C(O)c3c(CC)sc4cncn34)nn2)cc1 (racemic) [Example 244, rac-N-Ethyl-4-{4-[(2-ethyl-imidazo[5,1-b]thiazol-3-yl)-hydroxy-methyl]-[1,2,3]triazol-1-yl}-benzenesulfonamide]
17 | 40.8 nM | 6810 nM | CCc1sc2cncn2c1C(O)c1cn(-c2ccc(NC(=O)OC(C)(C)C)cc2F)nn1 (racemic) [Example 245, rac-(4-{4-[(2-Ethyl-imidazo[5,1-b]thiazol-3-yl)-hydroxy-methyl]-[1,2,3]triazol-1-yl}-3-fluoro-phenyl)-carbamic Acid Tert-Butyl Ester]
18 | 29.8 nM | 3800 nM | CC(C)C(=O)Nc1ccc(-n2cc(C(O)c3c(C4CC4)sc4cncn34)cn2)cc1 (racemic) [Example 246, rac-N-(4-{4-[(2-Cyclopropyl-imidazo[5,1-b]thiazol-3-yl)-hydroxy-methyl]-pyrazol-1-yl}-phenyl)-isobutyramide]
19 | 31.3 nM | 8140 nM | COc1ccc(-n2cc(C(O)c3c(C4CC4)sc4cncn34)cn2)cc1C#N (racemic) [Example 247, rac-5-{4-[(2-Cyclopropyl-imidazo[5,1-b]thiazol-3-yl)-hydroxy-methyl]-pyrazol-1-yl}-2-methoxy-benzonitrile]
20 | 2.6 nM | 4710 nM | O=[N+]([O-])c1cc(-n2cc(C(O)c3c(C4CC4)sc4cncn34)nn2)ccc1O (racemic) [Example 248, rac-4-{4-[(2-Cyclopropyl-imidazo[5,1-b]thiazol-3-yl)-hydroxy-methyl]-[1,2,3]triazol-1-yl}-2-nitro-phenol]
21 | 74.8 nM | > 10200 nM | COc1ccc(-n2cc(C(O)c3c(-c4ccccc4)sc4cncn34)nn2)cc1 (racemic) [Example 249, rac-[1-(4-Methoxy-phenyl)-1H-[1,2,3]triazol-4-yl]-(2-phenyl-imidazo[5,1-b]thiazol-3-yl)-methanol]
22 | 23.8 nM | 2300 nM | O=[N+]([O-])c1cc(-n2cc(C(O)c3c(-c4ccccc4)sc4cncn34)nn2)ccc1O (racemic) [Example 250, rac-4-{4-[Hydroxy-(2-phenyl-imidazo[5,1-b]thiazol-3-yl)-methyl]-[1,2,3]triazol-1-yl}-2-nitro-phenol]
23 | 569 nM | > 10200 nM | CC(C)(C)OC(=O)Nc1ccc(-n2cc(C(O)c3c(-c4ccccc4)sc4cncn34)nn2)cc1 (racemic) [Example 251, rac-(4-{4-[Hydroxy-(2-phenyl-imidazo[5,1-b]thiazol-3-yl)-methyl]-[1,2,3]triazol-1-yl}-phenyl)-carbamic acid tert-butyl ester]
24 | 4.13 nM | 7010 nM | COc1ccc(-n2nnc(C(O)c3c(C4CC4)sc4cncn34)c2C)cc1 (racemic) [Example 252, rac-(2-Cyclopropyl-imidazo[5,1-b]thiazol-3-yl)-[1-(4-methoxy-phenyl)-5-methyl-1H-[1,2,3]triazol-4-yl]-methanol]
25 | 17.2 nM | > 10200 nM | OC(c1cn(-c2ccc3[nH]ncc3c2)nn1)c1c(C2CC2)sc2cncn12 (racemic) [Example 253, rac-(2-Cyclopropyl-imidazo[5,1-b]thiazol-3-yl)-[1-(1H-indazol-5-yl)-1H-[1,2,3]triazol-4-yl]-methanol]
26 | 38.5 nM | > 10200 nM | Cn1ncc2cccc(-n3cc(C(O)c4c(C5CC5)sc5cncn45)nn3)c21 (racemic) [Example 254, rac-(2-Cyclopropyl-imidazo[5,1-b]thiazol-3-yl)-[1-(1-methyl-1H-indazol-7-yl)-1H-[1,2,3]triazol-4-yl]-methanol]
27 | 14.2 nM | 6940 nM | COc1ccc(-n2nnc(C(O)c3c(C)sc4cncn34)c2C)cc1 (racemic) [Example 255, rac-[1-(4-Methoxy-phenyl)-5-methyl-1H-[1,2,3]triazol-4-yl]-(2-methyl-imidazo[5,1-b]thiazol-3-yl)-methanol]
